Data as given in patent publication US11992479B2, “R-fadrozole for use in the treatment of aldostonerism” (priority 2018, dated 2024).
Where two headings read alike, the source gives them in different places.

Conditions: for AUC0-tau: geometric mean ± geometric CV %
Description: There were 6 subjects treated with each dose and twelve subjects treated with placebo (two placebo-treated-subjects included with each dose group).
The blood samples were collected in K2EDTA, centrifuged and the plasma stored at −80° C. The samples were prepared for analysis by liquid/liquid extraction as follows. A 50 μL aliquot was extracted with 25 μL of methanol:water (50:50) and mixed; following which 250 μL of ammonia acetate 100 mM:ammonia hydroxide (95:5) was added and the solution was mixed. 750 μL of ethyl acetate was then added and mixed by aspirating and centrifuged at approximately 2500×g for 5 min. 400 μL of the organic layer was collected and evaporated under nitrogen at 40° C. The dried sample was reconstituted in 200 μL of ammonia acetate 10 mM:methanol:ammonia hydroxide (70:30:0.35) and centrifuged at 2000×g for 5 min. at room temperature. The extracted sample was then subjected to liquid chromatography using a Waters, Acquity, UPLC with a Gemini 3 μm NX-C18, 5×2 mm column. An injection volume of 8 μL was analyzed using Mobil phase A consisting of ammonium acetate 10 mM:ammonium hydroxide (100:0.5) and Mobile phase B consisting of methanol. The purified sample was then analyzed by mass spectrometry (LC-MS/MS). […] The effective calibration range was 0.2 to 200 ng/ml.

N#Cc1ccc([C@H]2CCCc3cncn32)cc1.O=P(O)(O)O [DP13, (R)-(+)-5-(p-cyanophenyl)-5,6,7,8-tetrahydroimidazolium[1,5-a]pyridine dihydrogen phosphate]
AUC0-t (1 mg single oral dose, Day 1): 0.0458 ± 0.00416 µg·h/mL
Cmax (1 mg single oral dose, Day 1): 0.00468 ± 0.00038 µg/mL
T1/2 (1 mg single oral dose, Day 1): 8.19 ± 0.43 h
Tmax (1 mg single oral dose, Day 1): 2.00 ± 0.49 h
AUC0-t (2 mg single oral dose, Day 1): 0.133 ± 0.02741 µg·h/mL
Cmax (2 mg single oral dose, Day 1): 0.012 ± 0.00171 µg/mL
T1/2 (2 mg single oral dose, Day 1): 11.3 ± 1.28 h
Tmax (2 mg single oral dose, Day 1): 2.08 ± 0.36 h
AUC0-t (4 mg once daily oral, Day 1): 0.139 ± 0.015 µg·h/mL
AUC0-∞ (4 mg once daily oral, Day 1): 0.167 ± 0.022 µg·h/mL
Cmax (4 mg once daily oral, Day 1): 0.014 ± 0.0016 µg/mL
T1/2 (4 mg once daily oral, Day 1): 8.47 h
Tmax (4 mg once daily oral, Day 1): 2.08 ± 0.28 h
AUC0-t (4 mg once daily oral, Day 8): 0.154 ± 0.0205 µg·h/mL
AUC0-∞ (4 mg once daily oral, Day 8): 0.154 ± 0.0205 µg·h/mL
Cmax (4 mg once daily oral, Day 8): 0.0151 ± 0.0011 µg/mL
T1/2 (4 mg once daily oral, Day 8): 8.58 ± 1.1 h
Tmax (4 mg once daily oral, Day 8): 1.92 ± 0.35 h
AUC0-tau (4 mg, Day 1): 0.134 ± 0.0292 µg·h/mL
AUC0-tau (4 mg, Day 8): 0.148 ± 0.033 µg·h/mL
AUC0-t (8 mg once daily oral, Day 1): 0.281 ± 0.0242 µg·h/mL
AUC0-∞ (8 mg once daily oral, Day 1): 0.335 ± 0.0315 µg·h/mL
Cmax (8 mg once daily oral, Day 1): 0.0294 ± 0.0025 µg/mL
T1/2 (8 mg once daily oral, Day 1): 8.82 ± 0.4 h
Tmax (8 mg once daily oral, Day 1): 1.81 ± 0.25 h
AUC0-t (8 mg once daily oral, Day 8): 0.338 ± 0.0285 µg·h/mL
AUC0-∞ (8 mg once daily oral, Day 8): 0.338 ± 0.0285 µg·h/mL
Cmax (8 mg once daily oral, Day 8): 0.0379 ± 0.0039 µg/mL
T1/2 (8 mg once daily oral, Day 8): 8.92 ± 0.5 h
Tmax (8 mg once daily oral, Day 8): 1.56 ± 0.26 h
AUC0-tau (8 mg, Day 1): 0.274 ± 0.0249 µg·h/mL
AUC0-tau (8 mg, Day 8): 0.331 ± 0.0225 µg·h/mL
AUC0-t (16 mg once daily oral, Day 1): 0.61 ± 0.0347 µg·h/mL
AUC0-∞ (16 mg once daily oral, Day 1): 0.74 ± 0.0658 µg·h/mL
Cmax (16 mg once daily oral, Day 1): 0.0668 ± 0.0061 µg/mL
T1/2 (16 mg once daily oral, Day 1): 9.04 ± 0.8 h
Tmax (16 mg once daily oral, Day 1): 1.88 ± 0.41 h
AUC0-t (16 mg once daily oral, Day 8): 0.725 ± 0.0514 µg·h/mL
AUC0-∞ (16 mg once daily oral, Day 8): 0.725 ± 0.0514 µg·h/mL
Cmax (16 mg once daily oral, Day 8): 0.0774 ± 0.0069 µg/mL
T1/2 (16 mg once daily oral, Day 8): 9.67 h
Tmax (16 mg once daily oral, Day 8): 1.88 ± 0.40 h
AUC0-tau (16 mg, Day 1): 0.603 ± 0.0158 µg·h/mL
AUC0-tau (16 mg, Day 8): 0.714 ± 0.0191 µg·h/mL
absorption (Tmax) (all dose levels): absorbed rapidly at all dose levels
dose proportionality of Cmax and AUC0-∞ (all dose levels): dose-proportional
